For data set [1], the species on record is Homo sapiens. Description: Selectivity ratio of IC50 for human Nav1.5 to IC50 for human Nav1.7.
Data set [2] concerns the target Sodium channel protein type 5 subunit alpha (Homo sapiens, UniProt Q14524). Description: Inhibition of full length human Nav1.5 channel expressed in HEK cells co-expressing human sodium channel subunit beta1 at holding potential -60 mV by automated voltage clamp analysis. In kind it is cell-based, HEK293.
Data set [3] is described as follows: Selectivity ratio of IC50 for rat Nav1.7 to IC50 for human Nav1.7.
Data set [4] concerns the target Sodium channel protein type 9 subunit alpha (Rattus norvegicus, UniProt O08562). As to the kind of experiment: Inhibition of rat Nav1.7 channel by automated voltage clamp analysis.
The target of data set [5] is hERG (KCNH2) (Homo sapiens, UniProt Q12809). As to the kind of experiment: Displacement of [3H] astemizole from human ERG channel at 5 uM. Particulars: probe [3H] astemizole.
Chain of hERG (KCNH2) (Q12809 whole entry): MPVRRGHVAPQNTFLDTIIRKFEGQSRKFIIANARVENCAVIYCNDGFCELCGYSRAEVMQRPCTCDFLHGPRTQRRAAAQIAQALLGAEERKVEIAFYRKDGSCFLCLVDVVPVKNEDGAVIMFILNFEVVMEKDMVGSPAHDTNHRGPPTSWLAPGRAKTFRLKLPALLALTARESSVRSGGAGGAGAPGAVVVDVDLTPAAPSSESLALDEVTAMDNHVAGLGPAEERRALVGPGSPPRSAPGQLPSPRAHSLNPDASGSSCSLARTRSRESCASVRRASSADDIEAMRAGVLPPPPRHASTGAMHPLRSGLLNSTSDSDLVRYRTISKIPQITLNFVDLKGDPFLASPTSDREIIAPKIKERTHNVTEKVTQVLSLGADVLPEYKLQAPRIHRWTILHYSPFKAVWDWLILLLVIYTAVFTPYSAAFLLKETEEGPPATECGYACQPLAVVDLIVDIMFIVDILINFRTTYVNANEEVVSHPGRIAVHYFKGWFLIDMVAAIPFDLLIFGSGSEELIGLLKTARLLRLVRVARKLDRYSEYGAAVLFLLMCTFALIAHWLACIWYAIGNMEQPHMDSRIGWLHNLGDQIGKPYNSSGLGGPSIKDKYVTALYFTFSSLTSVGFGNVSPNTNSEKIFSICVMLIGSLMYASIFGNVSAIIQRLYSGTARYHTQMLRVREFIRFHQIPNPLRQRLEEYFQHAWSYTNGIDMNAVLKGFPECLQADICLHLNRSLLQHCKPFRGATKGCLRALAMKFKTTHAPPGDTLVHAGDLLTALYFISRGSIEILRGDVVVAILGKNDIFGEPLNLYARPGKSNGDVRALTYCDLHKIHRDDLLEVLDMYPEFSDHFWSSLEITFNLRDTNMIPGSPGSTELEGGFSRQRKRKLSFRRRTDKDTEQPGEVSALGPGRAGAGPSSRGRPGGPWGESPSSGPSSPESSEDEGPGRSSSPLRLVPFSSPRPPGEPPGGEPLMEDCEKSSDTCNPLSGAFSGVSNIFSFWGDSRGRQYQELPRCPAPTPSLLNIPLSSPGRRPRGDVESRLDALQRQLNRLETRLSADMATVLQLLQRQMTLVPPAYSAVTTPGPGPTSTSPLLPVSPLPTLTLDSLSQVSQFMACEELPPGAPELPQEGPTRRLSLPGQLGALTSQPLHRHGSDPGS
Data set [6] concerns the target Sodium channel protein type 9 subunit alpha (Homo sapiens, UniProt Q15858). As to the kind of experiment: Inhibition of full length human Nav1.7 channel expressed in HEK cells co-expressing human sodium channel subunit beta1 at holding potential -60 mV by automated voltage clamp analysis. In kind it is cell-based, HEK293.
The subject of data set [7] is Rattus norvegicus. Description: Analgesic activity in aconitine-induced rat pain model assessed as free plasma concentration required to show efficacy at 30 to 100 mg/kg, ip dosed 2 hrs prior to aconitine challenge measured over 60 mins by automated nociception analysis. The data set is classed as functional.
Data set [8] concerns Mus musculus. As to the kind of experiment: Analgesic activity in mouse assessed as reduction in CFA-induced cold allodynia at 30 mg/kg, ip administered 1 hr prior to acetone challenge on day 2 post CFA injection measured for 120 secs relative to vehicle control. The data set is classed as functional. On the set-up: scale not given: the % may be the effect or the level left.

For data set [9], the system named is Mus musculus. As to the kind of experiment: Analgesic activity in mouse assessed as reduction in CFA-induced cold allodynia at 100 mg/kg, ip administered 1 hr prior to acetone challenge on day 2 post CFA injection measured for 120 secs relative to vehicle control. On the set-up: scale not given: the % may be the effect or the level left. The data set is classed as functional.

The test system of data set [10] is Rattus norvegicus. As to the kind of experiment: Analgesic activity in rat assessed as reduction in formalin-induced late phase pain response at 100 mg/kg, ip dosed 2 hrs prior to formalin challenge measured over 10 to 40 mins by automated nociception analysis relative to formalin. On the set-up: scale not given: the % may be the effect or the level left. In kind it is functional.

In data set [11] the test system is Rattus norvegicus. As to the kind of experiment: Analgesic activity in formalin-induced rat pain model assessed as free plasma concentration required to show efficacy at 30 to 100 mg/kg, ip dosed 2 hrs prior to aconitine challenge measured over 60 mins by automated nociception analysis. The data set is classed as functional.
Data set [12] deals with Rattus norvegicus. As to the kind of experiment: Analgesic activity in rat assessed as inhibition of aconitine-induced pain response at 100 mg/kg, ip dosed 2 hrs prior to aconitine challenge measured over 60 mins by automated nociception analysis relative to aconitine. The data set is classed as functional. On the set-up: scale not given: the % may be the effect or the level left.

Data set [13] deals with Mus musculus. Description: Analgesic activity in mouse assessed as reduction in CFA-induced cold allodynia at 10 mg/kg, ip administered 1 hr prior to acetone challenge on day 2 post CFA injection measured for 120 secs relative to vehicle control. In kind it is functional, organism-based.
Data set [14] concerns Rattus norvegicus. Description: Analgesic activity in ip dosed rat assessed as inhibition of formalin-induced late phase pain response dosed 2 hrs prior to formalin challenge measured over 10 to 40 mins by automated nociception analysis. The data set is classed as functional, organism-based.
In data set [15] the test system is Rattus norvegicus. As to the kind of experiment: Analgesic activity in rat assessed as inhibition of formalin-induced late phase pain response at 30 mg/kg,ip dosed 2 hrs prior to formalin challenge measured over 10 to 40 mins by automated nociception analysis. The data set is classed as functional, organism-based.
The subject of data set [16] is Rattus norvegicus. As to the kind of experiment: Analgesic activity in rat assessed as delay in onset of formalin-induced pain response at 100 mg/kg,ip dosed 2 hrs prior to formalin challenge measured over 60 mins by automated nociception analysis. The data set is classed as functional, organism-based.
In data set [17] the test system is Mus musculus. As to the kind of experiment: Analgesic activity in ip dosed mouse assessed as reduction in CFA-induced cold allodynia administered 1 hr prior to acetone challenge on day 2 post CFA injection measured for 120 secs relative to vehicle control. In kind it is functional, organism-based.
Data set [18] concerns Rattus norvegicus. As to the kind of experiment: Analgesic activity in rat assessed as inhibition of aconitine-induced pain response at 30 mg/kg, ip dosed 2 hrs prior to aconitine challenge measured over 60 mins by automated nociception analysis relative to control. In kind it is functional, organism-based.

Active and inactive are the calls of the source. The calls are words filed in the database; no cut-off is given here. A value given as a limit tells only on which side of the number the result lay.

For orientation: IC50 means the concentration that inhibits the measured activity by half. One may read the inhibition as the relative decrease from the control value, in per cent.

Chain of Sodium channel protein type 5 subunit alpha (Q14524 whole entry): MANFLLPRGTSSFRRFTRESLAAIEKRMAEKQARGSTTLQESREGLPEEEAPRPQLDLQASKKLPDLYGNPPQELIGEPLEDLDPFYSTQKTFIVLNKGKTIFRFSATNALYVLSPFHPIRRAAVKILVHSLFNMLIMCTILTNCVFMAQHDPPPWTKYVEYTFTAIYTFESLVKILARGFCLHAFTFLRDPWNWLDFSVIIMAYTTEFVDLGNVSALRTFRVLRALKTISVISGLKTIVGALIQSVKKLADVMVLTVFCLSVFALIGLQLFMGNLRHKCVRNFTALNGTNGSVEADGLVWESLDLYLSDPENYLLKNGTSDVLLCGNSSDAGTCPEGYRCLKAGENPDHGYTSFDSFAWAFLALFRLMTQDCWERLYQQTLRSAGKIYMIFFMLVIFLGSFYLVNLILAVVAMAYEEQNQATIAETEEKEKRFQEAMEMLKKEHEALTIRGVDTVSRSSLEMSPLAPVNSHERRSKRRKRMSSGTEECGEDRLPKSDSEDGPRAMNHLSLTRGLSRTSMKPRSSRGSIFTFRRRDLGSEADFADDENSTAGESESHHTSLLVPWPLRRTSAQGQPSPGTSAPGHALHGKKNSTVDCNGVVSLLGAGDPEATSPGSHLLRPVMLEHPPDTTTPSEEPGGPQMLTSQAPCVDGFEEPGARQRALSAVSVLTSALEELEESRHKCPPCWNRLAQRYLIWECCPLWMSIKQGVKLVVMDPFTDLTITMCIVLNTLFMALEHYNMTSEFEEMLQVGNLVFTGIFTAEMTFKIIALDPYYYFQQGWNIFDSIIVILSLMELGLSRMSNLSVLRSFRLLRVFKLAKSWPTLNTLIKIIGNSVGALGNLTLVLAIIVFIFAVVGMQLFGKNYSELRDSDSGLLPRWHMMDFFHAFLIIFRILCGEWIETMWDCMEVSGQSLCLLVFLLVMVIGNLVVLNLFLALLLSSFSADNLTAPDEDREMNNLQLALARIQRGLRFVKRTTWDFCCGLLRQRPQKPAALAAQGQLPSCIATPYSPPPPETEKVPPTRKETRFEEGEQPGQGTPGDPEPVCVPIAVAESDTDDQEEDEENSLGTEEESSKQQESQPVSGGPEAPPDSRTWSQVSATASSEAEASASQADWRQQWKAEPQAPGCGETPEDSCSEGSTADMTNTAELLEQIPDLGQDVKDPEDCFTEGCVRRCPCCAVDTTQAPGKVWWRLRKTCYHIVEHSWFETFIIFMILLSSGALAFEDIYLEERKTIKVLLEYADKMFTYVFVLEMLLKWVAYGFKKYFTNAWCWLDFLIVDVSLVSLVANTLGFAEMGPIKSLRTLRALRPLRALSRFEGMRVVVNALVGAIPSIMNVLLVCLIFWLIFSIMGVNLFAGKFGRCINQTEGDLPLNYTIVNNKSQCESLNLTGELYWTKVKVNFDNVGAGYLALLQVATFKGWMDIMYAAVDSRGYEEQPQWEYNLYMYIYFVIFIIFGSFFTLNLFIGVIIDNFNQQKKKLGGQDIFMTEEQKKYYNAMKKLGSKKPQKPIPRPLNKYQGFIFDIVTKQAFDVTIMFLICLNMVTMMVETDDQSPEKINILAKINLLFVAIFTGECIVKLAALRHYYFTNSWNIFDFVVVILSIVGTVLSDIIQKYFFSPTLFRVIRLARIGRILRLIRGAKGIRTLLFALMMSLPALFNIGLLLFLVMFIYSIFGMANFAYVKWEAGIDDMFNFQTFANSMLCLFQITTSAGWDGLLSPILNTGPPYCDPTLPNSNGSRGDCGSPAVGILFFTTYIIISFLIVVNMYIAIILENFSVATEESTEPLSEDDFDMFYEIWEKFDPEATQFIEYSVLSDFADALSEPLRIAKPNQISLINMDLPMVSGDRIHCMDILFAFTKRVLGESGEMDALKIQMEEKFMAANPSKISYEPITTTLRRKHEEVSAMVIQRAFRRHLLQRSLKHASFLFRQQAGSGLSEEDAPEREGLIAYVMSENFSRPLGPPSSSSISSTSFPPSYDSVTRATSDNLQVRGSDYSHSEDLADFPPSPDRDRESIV
Chain of Sodium channel protein type 9 subunit alpha (Homo sapiens, UniProt Q15858) (Q15858 whole entry): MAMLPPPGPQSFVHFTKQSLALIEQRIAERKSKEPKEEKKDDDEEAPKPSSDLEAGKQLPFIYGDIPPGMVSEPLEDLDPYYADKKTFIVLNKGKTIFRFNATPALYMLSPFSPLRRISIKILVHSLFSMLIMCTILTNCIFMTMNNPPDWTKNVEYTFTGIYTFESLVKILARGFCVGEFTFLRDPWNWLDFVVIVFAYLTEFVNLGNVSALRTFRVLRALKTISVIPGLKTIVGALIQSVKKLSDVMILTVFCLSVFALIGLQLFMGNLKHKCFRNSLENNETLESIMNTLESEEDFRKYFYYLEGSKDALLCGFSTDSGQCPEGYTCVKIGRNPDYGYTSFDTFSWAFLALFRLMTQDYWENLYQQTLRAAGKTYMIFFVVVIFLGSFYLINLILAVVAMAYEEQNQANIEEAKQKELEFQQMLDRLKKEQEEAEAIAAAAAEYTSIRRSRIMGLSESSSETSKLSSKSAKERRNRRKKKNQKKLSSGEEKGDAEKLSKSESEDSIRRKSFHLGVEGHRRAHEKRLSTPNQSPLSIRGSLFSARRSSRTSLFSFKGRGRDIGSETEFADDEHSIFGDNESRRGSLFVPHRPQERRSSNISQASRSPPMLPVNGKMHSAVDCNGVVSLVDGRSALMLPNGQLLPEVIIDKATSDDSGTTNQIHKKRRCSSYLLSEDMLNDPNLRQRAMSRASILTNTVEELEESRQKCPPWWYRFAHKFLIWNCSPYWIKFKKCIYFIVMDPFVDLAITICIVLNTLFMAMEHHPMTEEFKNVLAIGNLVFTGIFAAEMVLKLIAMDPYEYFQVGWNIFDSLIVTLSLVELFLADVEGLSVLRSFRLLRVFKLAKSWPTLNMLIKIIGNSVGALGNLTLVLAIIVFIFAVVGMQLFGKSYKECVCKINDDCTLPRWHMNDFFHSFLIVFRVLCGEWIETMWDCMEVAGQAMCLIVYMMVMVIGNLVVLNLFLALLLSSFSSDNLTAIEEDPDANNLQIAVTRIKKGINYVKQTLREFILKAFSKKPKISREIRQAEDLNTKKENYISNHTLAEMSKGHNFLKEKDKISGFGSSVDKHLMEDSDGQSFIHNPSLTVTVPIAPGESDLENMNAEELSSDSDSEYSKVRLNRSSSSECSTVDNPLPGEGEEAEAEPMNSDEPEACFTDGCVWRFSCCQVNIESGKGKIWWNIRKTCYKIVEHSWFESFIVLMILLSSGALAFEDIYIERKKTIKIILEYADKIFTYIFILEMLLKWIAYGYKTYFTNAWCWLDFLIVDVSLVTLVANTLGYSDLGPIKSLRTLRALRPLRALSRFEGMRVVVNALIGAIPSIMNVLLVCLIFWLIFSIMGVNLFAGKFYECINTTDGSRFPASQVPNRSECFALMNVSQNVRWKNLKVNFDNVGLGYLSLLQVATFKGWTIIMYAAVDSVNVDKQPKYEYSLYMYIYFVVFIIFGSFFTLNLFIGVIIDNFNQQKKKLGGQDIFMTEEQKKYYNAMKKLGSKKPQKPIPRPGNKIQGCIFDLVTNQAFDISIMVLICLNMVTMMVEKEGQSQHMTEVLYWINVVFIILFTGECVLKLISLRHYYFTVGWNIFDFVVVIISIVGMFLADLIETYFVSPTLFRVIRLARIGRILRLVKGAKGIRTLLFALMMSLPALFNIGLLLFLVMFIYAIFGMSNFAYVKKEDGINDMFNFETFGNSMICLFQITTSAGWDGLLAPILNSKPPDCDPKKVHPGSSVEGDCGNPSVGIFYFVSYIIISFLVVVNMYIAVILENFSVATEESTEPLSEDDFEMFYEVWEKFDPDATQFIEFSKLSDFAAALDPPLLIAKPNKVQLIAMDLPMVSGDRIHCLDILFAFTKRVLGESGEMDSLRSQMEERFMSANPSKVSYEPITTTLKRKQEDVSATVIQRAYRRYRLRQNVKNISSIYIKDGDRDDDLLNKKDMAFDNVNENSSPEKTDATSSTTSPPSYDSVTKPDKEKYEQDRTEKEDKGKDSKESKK

Regarding `O=S(=O)(Nc1ncns1)c1cc(F)c(Oc2ccc(Cl)cc2-c2ccc3nccnc3c2)cc1F`, the Ratio IC50 is > 2700 in data set [1] and > 200 in data set [3]. Moreover, the IC50 is > 10000 nM in data set [2] and 740 nM in data set [4]. Besides, the inhibition at 5 µM in [5] is < 11%.

In the case of `O=S(=O)(Nc1ncns1)c1cc(F)c(Oc2ccc(Cl)cc2-c2ccc3[nH]cnc3c2)cc1F`, the IC50 in data set [2] is > 10000 nM. Besides, the inhibition at 5 µM in data set [5] was < 11%.

With `O=S(=O)(Nc1ncns1)c1cc(F)c(Oc2ccc(Cl)cc2-c2cccc3nccn23)cc1F`, the results for the IC50 in data set [2] and in [6] were > 10000 nM and 17 nM, respectively. For the same molecule, in data set [5], the inhibition at 5 µM was < 11%.

As for `Nc1noc2ccc(CCOc3cc(F)c(S(=O)(=O)Nc4ncns4)cc3F)cc12`, the IC50 in data set [6] was 241 nM. The inhibition at 5 µM in [5] is < 11%.

`Nc1noc2ccc(-c3cc(Cl)ccc3Oc3cc(F)c(S(=O)(=O)Nc4cscn4)cc3F)cc12`: in data set [5], the inhibition at 5 µM is < 11%.

Turning to `Nc1noc2ccc(-c3ccccc3Oc3cc(F)c(S(=O)(=O)Nc4ncns4)cc3F)cc12`, in data set [5], the inhibition at 5 µM was < 11%.

With `O=S(=O)(Nc1ncns1)c1cc(F)c(Oc2ccc(Cl)cc2-c2cnc3n2CCNC3)cc1F`, in data set [2], the IC50 was > 10000 nM. For the same molecule, the inhibition at 5 µM in data set [5] is < 11%.

In turn, `CNc1noc2ccc(-c3cc(Cl)ccc3Oc3cc(F)c(S(=O)(=O)Nc4ncns4)cc3F)cc12` had an IC50 in [2] of 230 nM. For the same molecule, the inhibition at 5 µM in [5] is < 11%.

Regarding `O=c1[nH]c2ccc(-c3cc(Cl)ccc3Oc3cc(F)c(S(=O)(=O)Nc4ncns4)cc3F)cc2[nH]1`, the IC50 in data set [2] was > 10000 nM. The inhibition at 5 µM in data set [5] is < 11%.

Turning to `Nc1n[nH]c2ccc(-c3cc(Cl)ccc3Oc3cc(F)c(S(=O)(=O)Nc4ncns4)cc3F)cc12`, the IC50 in data set [2] was > 10000 nM. For the same molecule, the inhibition at 5 µM in [5] is < 11%.

For the molecule `Nc1noc2ccc(-c3cccnc3Oc3cc(F)c(S(=O)(=O)Nc4ncns4)cc3F)cc12`, in [5], the inhibition at 5 µM is < 11%.

In the case of `Nc1noc2ccc(-c3cc(F)ccc3Oc3cc(F)c(S(=O)(=O)Nc4ncns4)cc3F)cc12`, the inhibition at 5 µM in data set [5] was < 11%.

As to `Nc1noc2ccc(-c3cc(Cl)ccc3Oc3cc(F)c(S(=O)(=O)[N-]c4ncns4)cc3F)cc12.[Na+]`, the “Cp(f)” value in [7] and in data set [11] was 250 nM each time. For the same molecule, the Activity was 59% in [8], 83% in data set [9], 60% in data set [10] and 43% in data set [12].

Consider `O=S(=O)(Nc1ncns1)c1cc(F)c(Oc2ccc(Cl)cc2-c2ncc3cnccn23)cc1F`, for which the inhibition at 5 µM in [5] was < 11%.

With `Nc1noc2ccc(-c3cc(Cl)ccc3Oc3cc(F)c(S(=O)(=O)Nc4ncns4)cc3F)cc12`, the outcome in [13], in data set [15] and in data set [18] was inactive. The Activity result in [14] and in data set [17] was “Dose-dependent effect” in each case. The result in [16] was Active. Also, the Ratio IC50 in data set [3] is > 60.

As for `Nc1noc2ccc(-c3cc(Cl)ccc3Oc3cc(F)c(S(=O)(=O)NCc4ncccn4)cc3F)cc12`, 5200 nM corresponded to half-maximal inhibition in data set [6] (IC50).
